Results: ChEMBL document CHEMBL4270561, “Biological activity of doubly modified salinomycin analogs - Evaluation in vitro and ex vivo” (Eur J Med Chem, 2018)

Legend:
[1] = test system: MCF-10A; experiment: Antiproliferative activity against human MCF10A cells at 100 ug/ml after 72 hrs by SRB assay relative to control; format: cell-based
[2] = test system: MCF7; experiment: Antiproliferative activity against human MCF7 cells after 72 hrs by SRB assay; format: functional, cell-based; conditions: MCF7, 72 h
[3] = test system: LoVo; experiment: Antiproliferative activity against human LoVo cells after 72 hrs by SRB assay; format: functional, cell-based
[4] = Antiproliferative activity against human ALL5 cells after 120 hrs by MTT assay; format: functional, cell-based; conditions: ALL5, 120 h
[5] = Resistance index, ratio of IC50 for human LoVo/DX cells to IC50 for human LoVo cells; format: functional
[6] = test system: JIMT-1; experiment: Antiproliferative activity against human JIMT1 cells after 72 hrs by SRB assay; format: functional, cell-based; conditions: JIMT-1, 72 h
[7] = test system: SK-BR-3; experiment: Antiproliferative activity against human SK-BR-3 cells after 72 hrs by SRB assay; format: functional, cell-based; conditions: SK-BR-3, 72 h
[8] = Antiproliferative activity against human LoVo/DX cells after 72 hrs by SRB assay; format: functional, cell-based
[9] = Cell cycle arrest in human ALL5 cells assessed as accumulation at G0/G1 phase at 5 times antiproliferative IC50 after 24 hrs by propidium iodide staining based flow cytometry (reference value: 79.7%); format: functional
[10] = Selectivity index, ratio of IC50 for human MCF10A cells to IC50 for human LoVo/DX cells; format: toxicity; conditions: MCF10A cells versus LoVo/DX cells, read-out: Ratio IC50
[11] = Selectivity index, ratio of IC50 for human MCF10A cells to IC50 for human SK-BR-3 cells; format: toxicity; conditions: MCF10A cells versus SK-BR-3 cells, read-out: Ratio IC50
[12] = Selectivity index, ratio of IC50 for human MCF10A cells to IC50 for human JIMT1 cells; format: toxicity; conditions: MCF10A cells versus JIMT1 cells, read-out: Ratio IC50
[13] = Cell cycle arrest in human ALL5 cells assessed as accumulation at G2/M-phase at 5 times antiproliferative IC50 after 96 hrs by propidium iodide staining based flow cytometry (reference value: 11.1%); format: functional
[14] = Cell cycle arrest in human ALL5 cells assessed as accumulation at S-phase at 5 times antiproliferative IC50 after 96 hrs by propidium iodide staining based flow cytometry (reference value: 7.52%); format: functional
[15] = Cell cycle arrest in human ALL5 cells assessed as accumulation at S-phase at 5 times antiproliferative IC50 after 24 hrs by propidium iodide staining based flow cytometry (reference value: 6.76%); format: functional
[16] = Cell cycle arrest in human ALL5 cells assessed as accumulation at G0/G1 phase at 5 times antiproliferative IC50 after 96 hrs by propidium iodide staining based flow cytometry (reference value: 69.8%); format: functional
[17] = test system: MCF-10A; experiment: Antiproliferative activity against human MCF10A cells after 72 hrs by SRB assay; format: cell-based
[18] = Cell cycle arrest in human ALL5 cells assessed as accumulation at S-phase at 5 times antiproliferative IC50 after 48 hrs by propidium iodide staining based flow cytometry (reference value: 9.82%); format: functional
[19] = Selectivity index, ratio of IC50 for human MCF10A cells to IC50 for human ALL5 cells; format: toxicity; conditions: MCF10A cells versus ALL5 cells, read-out: Ratio IC50
[20] = Cell cycle arrest in human ALL5 cells assessed as accumulation at G2/M-phase at 5 times antiproliferative IC50 after 48 hrs by propidium iodide staining based flow cytometry (reference value: 13.2%); format: functional
[21] = Cell cycle arrest in human ALL5 cells assessed as accumulation at sub-G1 phase at 5 times antiproliferative IC50 after 24 hrs by propidium iodide staining based flow cytometry (reference value: 6.07%); format: functional
[22] = Cell cycle arrest in human ALL5 cells assessed as accumulation at G2/M-phase at 5 times antiproliferative IC50 after 24 hrs by propidium iodide staining based flow cytometry (reference value: 7.98%); format: functional
[23] = Selectivity index, ratio of IC50 for human MCF10A cells to IC50 for human MCF7 cells; format: toxicity; conditions: MCF10A cells versus MCF7 cells, read-out: Ratio IC50
[24] = Selectivity index, ratio of IC50 for human MCF10A cells to IC50 for human LoVo cells; format: toxicity; conditions: MCF10A cells versus LoVo cells, read-out: Ratio IC50
[25] = Cell cycle arrest in human ALL5 cells assessed as accumulation at sub-G1 phase at 5 times antiproliferative IC50 after 96 hrs by propidium iodide staining based flow cytometry (reference value: 12%); format: functional
[26] = Cell cycle arrest in human ALL5 cells assessed as accumulation at G0/G1 phase at 5 times antiproliferative IC50 after 48 hrs by propidium iodide staining based flow cytometry (reference value: 69.6%); format: functional
[27] = Cell cycle arrest in human ALL5 cells assessed as accumulation at sub-G1 phase at 5 times antiproliferative IC50 after 48 hrs by propidium iodide staining based flow cytometry (reference value: 7.8%); format: functional

## C#CCNC(=O)[C@H](CC)[C@H]1CC[C@H](C)[C@H]([C@@H](C)[C@H](O)[C@H](C)C(=O)[C@H](CC)[C@H]2O[C@]3(C=C[C@@H](OC(=O)OCC)[C@]4(CC[C@@](C)([C@H]5CC[C@](O)(CC)[C@H](C)O5)O4)O3)[C@H](C)C[C@@H]2C)O1
[1]
  Activity: <= 50%
[2]
  IC50: 4.9 µM
[3]
  IC50: 4.7 µM
[4]
  IC50: 17 µM
[5]
  Ratio IC50: 0.81
[6]
  IC50: 7.9 µM
[7]
  IC50: 16 µM
[8]
  IC50: 3.8 µM

## CCNC(=O)O[C@@H]1C=C[C@]2(O[C@H]([C@@H](CC)C(=O)[C@@H](C)[C@@H](O)[C@H](C)[C@@H]3O[C@@H]([C@@H](CC)C(=O)NCCc4ccc(F)cc4)CC[C@@H]3C)[C@@H](C)C[C@H]2C)O[C@@]12CC[C@@](C)([C@H]1CC[C@](O)(CC)[C@H](C)O1)O2
[9]
  Activity: 80.9%
[10]
  selectivity ratio: 18
[11]
  selectivity ratio: 13
[12]
  selectivity ratio: 13
[13]
  Activity: 1.82%
[14]
  Activity: 2.28%
[15]
  Activity: 3.8%
[16]
  Activity: 42.5%
[17]
  IC50: 58 µM
[2]
  IC50: 3.8 µM
[18]
  Activity: 1.5%
[19]
  selectivity ratio: 20
[20]
  Activity: 5.34%
[21]
  Activity: 9.23%
[3]
  IC50: 3.5 µM
[4]
  IC50: 2.9 µM
[22]
  Activity: 6.14%
[23]
  selectivity ratio: 15
[24]
  selectivity ratio: 17
[5]
  Ratio IC50: 0.94
[25]
  Activity: 53.7%
[6]
  IC50: 4.4 µM
[7]
  IC50: 4.3 µM
[26]
  Activity: 71.6%
[27]
  Activity: 21.8%
[8]
  IC50: 3.3 µM

## C#CCNC(=O)[C@H](CC)[C@H]1CC[C@H](C)[C@H]([C@@H](C)[C@H](O)[C@H](C)C(=O)[C@H](CC)[C@H]2O[C@]3(C=C[C@@H](OC(=O)NCC)[C@]4(CC[C@@](C)([C@H]5CC[C@](O)(CC)[C@H](C)O5)O4)O3)[C@H](C)C[C@@H]2C)O1
[9]
  Activity: 77.8%
[10]
  selectivity ratio: 22
[11]
  selectivity ratio: 11
[12]
  selectivity ratio: 14
[13]
  Activity: 1.55%
[14]
  Activity: 2.73%
[15]
  Activity: 4.1%
[16]
  Activity: 25.2%
[17]
  IC50: 82 µM
[2]
  IC50: 4.7 µM
[18]
  Activity: 1.8%
[19]
  selectivity ratio: 22
[20]
  Activity: 6.44%
[21]
  Activity: 12.2%
[3]
  IC50: 4.2 µM
[4]
  IC50: 3.7 µM
[22]
  Activity: 6.08%
[23]
  selectivity ratio: 17
[24]
  selectivity ratio: 20
[5]
  Ratio IC50: 0.9
[25]
  Activity: 70.8%
[6]
  IC50: 5.9 µM
[7]
  IC50: 7.7 µM
[26]
  Activity: 65.9%
[27]
  Activity: 26.1%
[8]
  IC50: 3.8 µM

## CCNC(=O)O[C@@H]1C=C[C@]2(O[C@H]([C@@H](CC)C(=O)[C@@H](C)[C@@H](O)[C@H](C)[C@@H]3O[C@@H]([C@@H](CC)C(=O)OCC(F)(F)F)CC[C@@H]3C)[C@@H](C)C[C@H]2C)O[C@@]12CC[C@@](C)([C@H]1CC[C@](O)(CC)[C@H](C)O1)O2
[9]
  Activity: 76%
[10]
  selectivity ratio: 8
[11]
  selectivity ratio: 0.94
[12]
  selectivity ratio: 5.5
[13]
  Activity: 11%
[14]
  Activity: 5.42%
[15]
  Activity: 4.98%
[16]
  Activity: 56%
[17]
  IC50: 60 µM
[2]
  IC50: 6.1 µM
[18]
  Activity: 4.5%
[19]
  selectivity ratio: 40
[20]
  Activity: 11.8%
[21]
  Activity: 11%
[3]
  IC50: 5.3 µM
[4]
  IC50: 1.5 µM
[22]
  Activity: 8.15%
[23]
  selectivity ratio: 9.8
[24]
  selectivity ratio: 11
[5]
  Ratio IC50: 1.4
[25]
  Activity: 27.8%
[6]
  IC50: 11 µM
[7]
  IC50: 64 µM
[26]
  Activity: 64.1%
[27]
  Activity: 19.8%
[8]
  IC50: 7.5 µM

## CC[C@@H](C(=O)[C@@H](C)[C@@H](O)[C@H](C)[C@@H]1O[C@@H]([C@@H](CC)C(=O)OCC(F)(F)F)CC[C@@H]1C)[C@H]1O[C@]2(C=C[C@@H](O)[C@]3(CC[C@@](C)([C@H]4CC[C@](O)(CC)[C@H](C)O4)O3)O2)[C@H](C)C[C@@H]1C
[10]
  selectivity ratio: 11
[11]
  selectivity ratio: 2.5
[12]
  selectivity ratio: 9.3
[17]
  IC50: 43 µM
[2]
  IC50: 4.4 µM
[19]
  selectivity ratio: 36
[3]
  IC50: 3.9 µM
[4]
  IC50: 1.2 µM
[23]
  selectivity ratio: 9.8
[24]
  selectivity ratio: 11
[5]
  Ratio IC50: 1
[6]
  IC50: 4.6 µM
[7]
  IC50: 17 µM
[8]
  IC50: 3.9 µM

## C#CCOC(=O)[C@H](CC)[C@H]1CC[C@H](C)[C@H]([C@@H](C)[C@H](O)[C@H](C)C(=O)[C@H](CC)[C@H]2O[C@]3(C=C[C@@H](O)[C@]4(CC[C@@](C)([C@H]5CC[C@](O)(CC)[C@H](C)O5)O4)O3)[C@H](C)C[C@@H]2C)O1
[9]
  Activity: 71.3%
[10]
  selectivity ratio: 21
[11]
  selectivity ratio: 6.4
[12]
  selectivity ratio: 8.7
[13]
  Activity: 4.64%
[14]
  Activity: 2.95%
[15]
  Activity: 4.34%
[16]
  Activity: 42.8%
[17]
  IC50: 54 µM
[2]
  IC50: 4.3 µM
[18]
  Activity: 3.58%
[19]
  selectivity ratio: 16
[20]
  Activity: 5.35%
[21]
  Activity: 16.2%
[3]
  IC50: 3.9 µM
[4]
  IC50: 3.3 µM
[22]
  Activity: 8.24%
[23]
  selectivity ratio: 13
[24]
  selectivity ratio: 14
[5]
  Ratio IC50: 0.67
[25]
  Activity: 49.8%
[6]
  IC50: 6.2 µM
[7]
  IC50: 8.5 µM
[26]
  Activity: 51.7%
[27]
  Activity: 39.8%
[8]
  IC50: 2.6 µM

## CC[C@@H](C(=O)[C@@H](C)[C@@H](O)[C@H](C)[C@@H]1O[C@@H]([C@@H](CC)C(=O)NCCc2ccc(F)cc2)CC[C@@H]1C)[C@H]1O[C@]2(C=C[C@@H](O)[C@]3(CC[C@@](C)([C@H]4CC[C@](O)(CC)[C@H](C)O4)O3)O2)[C@H](C)C[C@@H]1C
[10]
  selectivity ratio: 16
[11]
  selectivity ratio: 7.1
[12]
  selectivity ratio: 7.8
[17]
  IC50: 40 µM
[2]
  IC50: 4.1 µM
[19]
  selectivity ratio: 24
[3]
  IC50: 3.8 µM
[4]
  IC50: 1.7 µM
[23]
  selectivity ratio: 9.8
[24]
  selectivity ratio: 11
[5]
  Ratio IC50: 0.66
[6]
  IC50: 5.1 µM
[7]
  IC50: 5.6 µM
[8]
  IC50: 2.5 µM

## C#CCNC(=O)[C@H](CC)[C@H]1CC[C@H](C)[C@H]([C@@H](C)[C@H](O)[C@H](C)C(=O)[C@H](CC)[C@H]2O[C@]3(C=C[C@@H](OC(C)=O)[C@]4(CC[C@@](C)([C@H]5CC[C@](O)(CC)[C@H](C)O5)O4)O3)[C@H](C)C[C@@H]2C)O1
[9]
  Activity: 77.1%
[10]
  selectivity ratio: 25
[11]
  selectivity ratio: 7.7
[12]
  selectivity ratio: 5.4
[13]
  Activity: 1.27%
[14]
  Activity: 2.15%
[15]
  Activity: 3.48%
[16]
  Activity: 20.6%
[17]
  IC50: 92 µM
[2]
  IC50: 5.8 µM
[18]
  Activity: 1.75%
[19]
  selectivity ratio: 23
[20]
  Activity: 5.11%
[21]
  Activity: 14.5%
[3]
  IC50: 4.4 µM
[4]
  IC50: 4 µM
[22]
  Activity: 5.01%
[23]
  selectivity ratio: 16
[24]
  selectivity ratio: 21
[5]
  Ratio IC50: 0.84
[25]
  Activity: 76.3%
[6]
  IC50: 17 µM
[7]
  IC50: 12 µM
[26]
  Activity: 58.9%
[27]
  Activity: 34.3%
[8]
  IC50: 3.7 µM
